Active and inactive are the calls of the source.
Experiments:
[1] = molecular target: Sphingosine 1-phosphate receptor 4 (Homo sapiens, UniProt O95977); assay: Fluorescence dose response cell-based high throughput screening assay for antagonists of the Sphingosine 1-Phosphate Receptor 4 (S1P4). [Related pubchem assays: 1524 (Confirmation in triplicates.), 1510 (Primary screen.)]; format: functional
[2] = tested on: HEK293; assay: cells; format: functional, cell-based; settings: Homo sapiens
[3] = HepG2 cell cytotoxicity, dose response, cytotoxicity control for Shn3 inhibitor project, CellTiter-Glo, cherry-picked (AID 624134); format: functional, cell-based
[4] = tested on: HEK293; assay: cells; format: functional, cell-based; settings: Homo sapiens; remark: listed apart in the source
[5] = tested on: INS1; assay: beta cell apoptosis inhibitors, cytokine rescue, dose response, luminescence, retest (AID 449756); format: functional, cell-based; settings: Rattus norvegicus;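 note: cell death triggered by IL-1 beta plus TNF-alpha plus IFN-gamma mixture; protective hits raise ATP signal compared with cytokine alone wells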
[6] = Shn3 3'UTR reporter inhibitors, dose response, cell-based, Clone20 osteoblasts, firefly luciferase, cherry-picked (AID 624132); format: functional;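 note: firefly luciferase luminescence from reporter carrying the Shn3 3'UTR in osteoblasts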
[7] = tested on: HEK293; assay: NOD1 signaling inhibitors, primary screen, cell-based, luminescence, uHTS (AID 1578); format: functional; settings: Homo sapiens
[8] = growth suppression of PTEN-null colon cells, dose response, cell-based, HCT116 PTEN knockout (AID 1047); format: functional;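 note: HCT116 colon tumor cells with PTEN knocked out; cells exposed to compound for 60 hours before readout; potency for loss of cell viability measured by luminescence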
[9] = growth suppression of beta-catenin-knockout colon cells, dose response, cell-based, HCT116, human colon tumor (AID 1045); format: functional;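 note: HCT116 colon tumor cells with beta catenin knocked out; cells exposed to compound for 60 hours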
[10] = molecular target: Nucleotide-binding oligomerization domain-containing protein 2 (Homo sapiens, UniProt Q9HC29); assay: NOD2 signaling inhibitors, cell-based, luminescence, uHTS, HEK293 (AID 1566); format: functional
Sequence of Nucleotide-binding oligomerization domain-containing protein 2 (Q9HC29 whole entry, the tested form may be a part): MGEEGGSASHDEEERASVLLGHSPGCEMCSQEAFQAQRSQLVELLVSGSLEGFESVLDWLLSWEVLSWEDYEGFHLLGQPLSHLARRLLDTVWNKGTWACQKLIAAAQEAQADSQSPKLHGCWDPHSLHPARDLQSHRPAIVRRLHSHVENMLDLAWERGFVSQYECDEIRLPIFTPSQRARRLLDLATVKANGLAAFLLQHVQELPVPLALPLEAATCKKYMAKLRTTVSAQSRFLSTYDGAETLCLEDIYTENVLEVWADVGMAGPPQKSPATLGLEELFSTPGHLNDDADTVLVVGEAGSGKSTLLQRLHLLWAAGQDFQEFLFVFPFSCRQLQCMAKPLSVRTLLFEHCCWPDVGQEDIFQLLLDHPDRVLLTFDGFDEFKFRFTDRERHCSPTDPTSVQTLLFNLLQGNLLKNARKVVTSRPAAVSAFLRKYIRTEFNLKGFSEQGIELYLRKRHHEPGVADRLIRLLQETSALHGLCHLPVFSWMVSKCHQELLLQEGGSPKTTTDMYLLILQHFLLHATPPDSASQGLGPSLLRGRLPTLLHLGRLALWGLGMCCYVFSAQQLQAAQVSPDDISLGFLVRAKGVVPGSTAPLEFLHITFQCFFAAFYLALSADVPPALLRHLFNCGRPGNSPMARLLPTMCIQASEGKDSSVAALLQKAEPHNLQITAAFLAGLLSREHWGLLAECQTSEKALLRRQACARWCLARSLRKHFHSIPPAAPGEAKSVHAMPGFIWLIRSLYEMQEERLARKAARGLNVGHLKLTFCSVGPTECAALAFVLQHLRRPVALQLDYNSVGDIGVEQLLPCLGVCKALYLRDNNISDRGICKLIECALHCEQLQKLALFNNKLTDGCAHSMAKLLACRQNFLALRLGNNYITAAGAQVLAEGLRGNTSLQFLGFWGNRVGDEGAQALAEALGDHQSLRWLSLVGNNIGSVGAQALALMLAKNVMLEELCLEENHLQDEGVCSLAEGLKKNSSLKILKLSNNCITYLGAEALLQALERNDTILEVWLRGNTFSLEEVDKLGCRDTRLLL

[11] = tested on: HEK293; assay: NOD2 signaling inhibitors in MDP-stimulated cells, cell-based, uHTS, luminescence (AID 2001); format: functional; settings: Homo sapiens
[12] = inhibitors of SNCA 5'UTR-driven reporter translation, confirmation, H4 neuroglioma cells, luminescence (AID 1988); format: functional, cell-based
[13] = molecular target: Sphingosine 1-phosphate receptor 1 (Homo sapiens, UniProt P21453); format: functional;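 note: Tango beta-arrestin reporter U2OS cells stimulated with S1P near its EC80; inhibitor potency meaning antagonism of receptor activation by the natural agonist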
Sequence of Sphingosine 1-phosphate receptor 1 (P21453 whole entry): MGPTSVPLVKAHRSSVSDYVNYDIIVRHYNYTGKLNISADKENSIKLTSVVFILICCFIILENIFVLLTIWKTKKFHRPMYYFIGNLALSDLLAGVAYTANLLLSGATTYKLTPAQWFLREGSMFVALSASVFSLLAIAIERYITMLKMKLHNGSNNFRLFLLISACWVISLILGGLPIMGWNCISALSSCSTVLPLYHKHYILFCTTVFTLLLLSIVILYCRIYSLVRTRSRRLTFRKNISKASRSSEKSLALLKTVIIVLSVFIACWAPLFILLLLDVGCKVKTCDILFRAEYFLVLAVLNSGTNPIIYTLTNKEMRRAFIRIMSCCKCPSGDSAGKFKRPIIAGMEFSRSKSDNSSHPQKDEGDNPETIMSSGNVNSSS

[14] = control 3'UTR Renilla luciferase suppression, dose response, counter-screen for Shn3 inhibitor project, cell-based, Clone20-Shn3RL, cherry-picked (AID 624133); format: functional
[15] = molecular target: Beta-2 adrenergic receptor (Homo sapiens, UniProt P07550); assay: beta2AR agonists driving receptor internalization, dose response, cell-based, FAP fluorogen, flow cytometry, cherry pick 1 (AID 588763); format: functional
Sequence of Beta-2 adrenergic receptor (P07550 whole entry): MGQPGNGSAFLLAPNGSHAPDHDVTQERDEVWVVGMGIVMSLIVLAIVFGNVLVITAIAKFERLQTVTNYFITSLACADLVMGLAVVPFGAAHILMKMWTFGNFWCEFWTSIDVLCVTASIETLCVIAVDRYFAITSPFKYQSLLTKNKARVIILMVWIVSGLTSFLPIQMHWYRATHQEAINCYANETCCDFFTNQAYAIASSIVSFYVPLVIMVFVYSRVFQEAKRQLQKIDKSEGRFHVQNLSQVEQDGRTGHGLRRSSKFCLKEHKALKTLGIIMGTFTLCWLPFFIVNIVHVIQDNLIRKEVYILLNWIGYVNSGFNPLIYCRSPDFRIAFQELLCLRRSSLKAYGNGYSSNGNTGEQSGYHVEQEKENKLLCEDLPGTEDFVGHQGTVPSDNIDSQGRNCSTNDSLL

[16] = inhibitors of firefly luciferase expression or activity, dose response, H4 neuroglioma cells, luminescence (AID 1990); format: functional, cell-based
[17] = Luminescence Cell-Based Dose Response HTS to Identify Inhibitors of 5'UTR Stem-Loop Driven Prion Protein mRNA Translation in H4 Neuroglioblastoma Cells. [Related pubchem assays: 1827 (Project Summary), 1813 (Primary HTS)]; format: functional
[18] = inhibitors of PGC1a acetylation in cells, dose response, cell-based, cherry-picked samples (AID 720514); format: functional;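 note: potency may reflect raised or lowered acetylation signal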
[19] = tested on: HEK293; assay: cells; format: functional, cell-based; settings: Homo sapiens; remark: listed apart in the source
[20] = molecular target: Cysteine protease ATG4B (Homo sapiens, UniProt Q9Y4P1); format: functional;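 note: Fluorescence-based dose-response confirmation assay measuring inhibition of ATG4B activity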
Sequence of Cysteine protease ATG4B (Q9Y4P1 whole entry): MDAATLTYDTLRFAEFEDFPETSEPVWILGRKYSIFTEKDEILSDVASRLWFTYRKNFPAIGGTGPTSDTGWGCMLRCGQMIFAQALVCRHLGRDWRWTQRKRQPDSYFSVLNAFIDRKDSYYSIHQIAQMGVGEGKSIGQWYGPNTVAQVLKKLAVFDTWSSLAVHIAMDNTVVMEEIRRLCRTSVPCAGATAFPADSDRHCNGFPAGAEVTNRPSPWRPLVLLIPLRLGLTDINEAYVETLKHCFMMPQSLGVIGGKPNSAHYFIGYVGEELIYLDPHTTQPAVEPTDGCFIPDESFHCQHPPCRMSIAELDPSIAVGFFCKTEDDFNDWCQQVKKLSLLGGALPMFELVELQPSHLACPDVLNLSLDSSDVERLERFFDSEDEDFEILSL

[21] = molecular target: Nonstructural protein 1 (Influenza A virus, UniProt Q194T2); format: functional, Influenza A virus (A/California/07/2009(H1N1))
Sequence of Nonstructural protein 1 (Q194T2 whole entry): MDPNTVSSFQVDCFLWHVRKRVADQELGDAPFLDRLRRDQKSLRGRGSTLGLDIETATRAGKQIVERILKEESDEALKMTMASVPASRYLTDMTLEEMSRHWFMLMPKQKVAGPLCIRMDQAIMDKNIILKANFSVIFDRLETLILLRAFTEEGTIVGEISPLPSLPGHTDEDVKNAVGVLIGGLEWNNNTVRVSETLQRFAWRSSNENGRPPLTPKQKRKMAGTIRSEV

[22] = molecular target: Phospholipase A2 (Homo sapiens, UniProt P04054); format: functional;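 note: confirmatory dose-response counterscreen on phospholipase A2, testing hits that came from an ultra-high-throughput screen for ATG4B inhibitors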
Sequence of Phospholipase A2 (P04054 whole entry): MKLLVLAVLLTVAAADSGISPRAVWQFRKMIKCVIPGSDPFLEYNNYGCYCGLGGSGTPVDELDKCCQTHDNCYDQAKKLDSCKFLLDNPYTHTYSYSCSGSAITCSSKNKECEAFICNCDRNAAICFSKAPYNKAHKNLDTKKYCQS

[23] = molecular target: T1, Beta-adrenergic receptor kinase 1 (Homo sapiens, UniProt P25098); assay: aptamer displacement from bead-bound GRK2 – biochemical, cherry pick 1, bead flow cytometry, dose response (AID 504500)
T1 sequence (P25098 whole entry): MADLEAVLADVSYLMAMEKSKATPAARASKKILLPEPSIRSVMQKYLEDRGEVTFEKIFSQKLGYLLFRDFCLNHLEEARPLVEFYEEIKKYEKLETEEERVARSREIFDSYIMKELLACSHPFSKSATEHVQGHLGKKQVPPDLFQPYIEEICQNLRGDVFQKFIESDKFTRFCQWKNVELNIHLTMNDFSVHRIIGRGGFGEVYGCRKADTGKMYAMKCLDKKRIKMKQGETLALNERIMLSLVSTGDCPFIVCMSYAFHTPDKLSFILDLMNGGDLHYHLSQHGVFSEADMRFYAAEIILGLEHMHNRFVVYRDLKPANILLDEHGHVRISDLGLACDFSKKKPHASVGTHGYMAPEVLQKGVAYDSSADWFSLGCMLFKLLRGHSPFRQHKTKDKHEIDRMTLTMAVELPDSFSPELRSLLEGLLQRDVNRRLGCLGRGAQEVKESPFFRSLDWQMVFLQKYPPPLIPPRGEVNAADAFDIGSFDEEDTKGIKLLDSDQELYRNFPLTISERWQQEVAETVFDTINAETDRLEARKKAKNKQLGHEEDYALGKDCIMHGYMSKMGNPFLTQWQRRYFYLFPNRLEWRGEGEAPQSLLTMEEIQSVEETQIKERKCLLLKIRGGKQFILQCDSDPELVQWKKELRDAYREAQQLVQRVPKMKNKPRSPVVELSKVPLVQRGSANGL

[24] = molecular target: T1, Beta-adrenergic receptor kinase 1; assay: GRK2 inhibitors displacing RNA aptamer, dose response, biochemical, flow cytometry beads, FAM-aptamer, powder set 1 (AID 588720)
[25] = molecular target: Phospholipase D2 (Homo sapiens, UniProt O14939); assay: PLD2 purified enzyme concentration response. [Related pubchem assays (depositor defined):AID588854]; format: functional
Sequence of Phospholipase D2 (O14939 whole entry): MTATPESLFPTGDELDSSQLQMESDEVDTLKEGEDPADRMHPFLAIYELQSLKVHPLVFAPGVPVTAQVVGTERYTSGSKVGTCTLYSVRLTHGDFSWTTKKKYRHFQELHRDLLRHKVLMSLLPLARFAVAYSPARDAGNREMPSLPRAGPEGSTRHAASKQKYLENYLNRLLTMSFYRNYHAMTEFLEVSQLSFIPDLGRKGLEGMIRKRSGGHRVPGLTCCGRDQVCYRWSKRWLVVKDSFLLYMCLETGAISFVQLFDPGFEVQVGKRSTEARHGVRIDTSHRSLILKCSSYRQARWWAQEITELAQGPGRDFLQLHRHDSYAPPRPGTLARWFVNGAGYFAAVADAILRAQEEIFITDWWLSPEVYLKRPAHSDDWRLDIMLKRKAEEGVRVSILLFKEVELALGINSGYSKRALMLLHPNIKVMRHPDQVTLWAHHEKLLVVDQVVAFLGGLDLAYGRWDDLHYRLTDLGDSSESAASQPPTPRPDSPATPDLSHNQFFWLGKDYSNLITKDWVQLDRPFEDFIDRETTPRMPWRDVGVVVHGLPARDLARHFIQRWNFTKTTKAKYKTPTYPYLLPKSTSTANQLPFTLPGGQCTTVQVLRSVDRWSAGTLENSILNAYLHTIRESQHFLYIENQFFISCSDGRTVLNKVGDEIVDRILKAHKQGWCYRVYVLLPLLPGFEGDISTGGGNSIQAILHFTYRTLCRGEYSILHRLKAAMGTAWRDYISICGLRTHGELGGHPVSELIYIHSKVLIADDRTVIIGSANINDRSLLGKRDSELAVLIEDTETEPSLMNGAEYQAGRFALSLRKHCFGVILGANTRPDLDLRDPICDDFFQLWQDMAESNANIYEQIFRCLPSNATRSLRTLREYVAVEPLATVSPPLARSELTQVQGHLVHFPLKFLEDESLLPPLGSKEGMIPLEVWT

[26] = molecular target: T2, Phospholipase D1 (Homo sapiens, UniProt Q13393); assay: PLD1 purified enzyme concentration response. [Related pubchem assays (depositor defined):AID588854]; format: functional
T2 sequence (Q13393 whole entry): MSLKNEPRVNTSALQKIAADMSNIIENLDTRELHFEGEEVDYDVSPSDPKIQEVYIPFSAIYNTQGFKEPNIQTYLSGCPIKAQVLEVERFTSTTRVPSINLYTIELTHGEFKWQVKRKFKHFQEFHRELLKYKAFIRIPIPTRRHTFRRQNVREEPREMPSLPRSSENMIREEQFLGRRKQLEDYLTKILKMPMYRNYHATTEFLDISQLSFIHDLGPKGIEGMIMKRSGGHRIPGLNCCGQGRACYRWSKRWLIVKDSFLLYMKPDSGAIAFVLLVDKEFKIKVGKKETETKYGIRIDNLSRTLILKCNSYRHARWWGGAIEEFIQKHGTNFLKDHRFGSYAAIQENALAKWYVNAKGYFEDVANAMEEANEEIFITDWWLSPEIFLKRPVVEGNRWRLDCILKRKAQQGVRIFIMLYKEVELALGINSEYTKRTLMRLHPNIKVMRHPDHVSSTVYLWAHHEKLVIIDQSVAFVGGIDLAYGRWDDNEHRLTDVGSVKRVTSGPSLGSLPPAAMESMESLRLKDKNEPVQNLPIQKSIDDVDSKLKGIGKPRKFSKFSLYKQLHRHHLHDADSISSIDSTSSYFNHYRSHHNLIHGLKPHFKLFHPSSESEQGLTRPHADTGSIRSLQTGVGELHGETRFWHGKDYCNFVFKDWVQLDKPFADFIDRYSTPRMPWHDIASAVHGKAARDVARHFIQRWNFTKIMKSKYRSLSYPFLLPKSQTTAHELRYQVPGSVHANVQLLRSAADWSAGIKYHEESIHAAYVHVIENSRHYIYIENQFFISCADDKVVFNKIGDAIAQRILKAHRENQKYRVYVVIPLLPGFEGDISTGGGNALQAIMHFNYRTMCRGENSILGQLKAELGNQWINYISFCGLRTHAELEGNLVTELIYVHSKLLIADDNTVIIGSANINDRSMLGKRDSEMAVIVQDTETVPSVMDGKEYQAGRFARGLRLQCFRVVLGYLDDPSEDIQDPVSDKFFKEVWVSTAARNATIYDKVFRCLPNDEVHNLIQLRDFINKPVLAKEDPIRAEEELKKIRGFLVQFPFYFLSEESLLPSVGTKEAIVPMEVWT

[27] = tested on: HEK293; assay: cytotoxicity in HEK293T NF-kB-Luc cells, SAR follow-up, cytotoxicity control for NF-kB activator project, cell-based, resazurin fluorescence (AID 493251); format: functional; settings: Homo sapiens
[28] = tested on: Jurkat; assay: SAR Analysis of small molecule inhibitors of […] specific antigen receptor-induced NF-kB activation in a Jurkat cell line using a luminescence assay - Set 3. [Related pubchem assays (depositor defined):AID435022, AID435025, AID465]; format: functional, cell-based; settings: Homo sapiens
[29] = tested on: HEK293; assay: SAR Analysis of small molecule inhibitors of B-cell specific antigen receptor-induced NF-kB activation in a HEK-293T cell line using a luminescence assay - Set 2. [Related pubchem assays (depositor defined):AID435022, AID435025, AID489021]; format: functional, cell-based; settings: Homo sapiens
[30] = molecular target: T3, Hexokinase HKDC1 (Homo sapiens, UniProt Q2TB90); assay: SAR analysis of small molecule inhibitors of hexokinase domain containing I (HKDC1). [Related pubchem assays (depositor defined):AID493160, AID493190]; format: functional
T3 sequence (Q2TB90 whole entry): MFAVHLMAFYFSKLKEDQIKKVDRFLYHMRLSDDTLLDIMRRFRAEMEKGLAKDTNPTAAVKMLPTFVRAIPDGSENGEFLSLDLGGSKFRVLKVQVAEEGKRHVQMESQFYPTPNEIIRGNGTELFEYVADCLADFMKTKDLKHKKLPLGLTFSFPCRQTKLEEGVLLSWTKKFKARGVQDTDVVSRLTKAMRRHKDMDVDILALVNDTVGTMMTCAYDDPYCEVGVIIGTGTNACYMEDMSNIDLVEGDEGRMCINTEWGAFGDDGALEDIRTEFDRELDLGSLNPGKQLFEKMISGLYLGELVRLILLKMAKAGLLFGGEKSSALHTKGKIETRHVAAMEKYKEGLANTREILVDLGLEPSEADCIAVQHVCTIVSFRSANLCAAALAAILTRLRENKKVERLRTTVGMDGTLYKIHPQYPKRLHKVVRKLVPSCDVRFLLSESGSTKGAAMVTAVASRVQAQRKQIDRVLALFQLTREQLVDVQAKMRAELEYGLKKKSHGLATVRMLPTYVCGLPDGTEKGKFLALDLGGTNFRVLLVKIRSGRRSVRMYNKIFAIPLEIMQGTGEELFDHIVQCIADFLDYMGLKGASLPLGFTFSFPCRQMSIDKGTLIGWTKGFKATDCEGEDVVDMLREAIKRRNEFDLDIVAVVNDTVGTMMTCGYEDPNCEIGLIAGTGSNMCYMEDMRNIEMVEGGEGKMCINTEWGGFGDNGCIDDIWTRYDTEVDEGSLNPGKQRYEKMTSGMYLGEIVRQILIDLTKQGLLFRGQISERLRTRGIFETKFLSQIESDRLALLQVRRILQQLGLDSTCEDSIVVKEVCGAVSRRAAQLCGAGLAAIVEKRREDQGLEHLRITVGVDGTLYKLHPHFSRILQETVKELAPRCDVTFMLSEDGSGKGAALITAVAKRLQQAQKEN

[31] = molecular target: T4, Hexokinase-1 (Homo sapiens, UniProt P19367); assay: SAR analysis of small molecule inhibitors of hexokinase domain containing I (HKDC1) in the hexokinase 1 selectivity assay. [Related pubchem assays (depositor defined):AID493160, AID493190]; format: functional
T4 sequence (P19367 whole entry): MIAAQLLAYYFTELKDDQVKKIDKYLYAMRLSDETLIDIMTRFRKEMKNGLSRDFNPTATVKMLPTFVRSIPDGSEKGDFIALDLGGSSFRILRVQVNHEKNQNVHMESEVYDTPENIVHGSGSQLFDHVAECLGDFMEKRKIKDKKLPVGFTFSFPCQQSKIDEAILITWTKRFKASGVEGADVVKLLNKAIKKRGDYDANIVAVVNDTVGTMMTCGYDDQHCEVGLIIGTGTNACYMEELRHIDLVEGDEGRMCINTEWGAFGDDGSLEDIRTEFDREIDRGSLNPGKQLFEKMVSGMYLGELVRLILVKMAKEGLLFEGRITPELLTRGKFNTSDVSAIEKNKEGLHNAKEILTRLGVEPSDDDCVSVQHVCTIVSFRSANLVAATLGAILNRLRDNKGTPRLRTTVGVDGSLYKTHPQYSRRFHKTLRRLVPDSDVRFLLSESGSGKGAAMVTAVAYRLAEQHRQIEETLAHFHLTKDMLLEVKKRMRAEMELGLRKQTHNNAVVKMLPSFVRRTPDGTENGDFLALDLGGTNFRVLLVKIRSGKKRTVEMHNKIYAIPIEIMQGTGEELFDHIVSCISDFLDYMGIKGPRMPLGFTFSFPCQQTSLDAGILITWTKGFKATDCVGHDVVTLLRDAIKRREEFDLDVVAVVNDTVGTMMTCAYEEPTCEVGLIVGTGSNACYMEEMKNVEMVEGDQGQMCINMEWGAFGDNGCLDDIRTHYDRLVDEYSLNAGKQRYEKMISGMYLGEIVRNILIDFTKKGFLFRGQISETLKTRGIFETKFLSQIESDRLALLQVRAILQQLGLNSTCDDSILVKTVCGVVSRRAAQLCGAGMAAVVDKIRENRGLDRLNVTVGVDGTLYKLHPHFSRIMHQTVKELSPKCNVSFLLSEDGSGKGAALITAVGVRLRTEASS

Sequence of Sphingosine 1-phosphate receptor 4 (O95977 whole entry): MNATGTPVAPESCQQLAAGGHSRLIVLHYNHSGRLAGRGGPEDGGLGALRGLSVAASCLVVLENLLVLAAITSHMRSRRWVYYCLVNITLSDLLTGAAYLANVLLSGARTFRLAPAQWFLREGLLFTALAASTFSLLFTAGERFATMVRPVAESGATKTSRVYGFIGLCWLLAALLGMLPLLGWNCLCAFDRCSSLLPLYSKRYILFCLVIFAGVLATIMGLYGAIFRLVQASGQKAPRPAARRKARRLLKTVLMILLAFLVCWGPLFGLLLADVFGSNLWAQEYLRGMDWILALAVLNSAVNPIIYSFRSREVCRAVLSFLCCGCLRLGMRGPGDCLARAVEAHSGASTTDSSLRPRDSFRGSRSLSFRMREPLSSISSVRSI

Q: Which IC50 [1] does the source give for `Cc1ccc(-c2nc(NC(=O)c3nn(C)cc3[N+](=O)[O-])sc2C)cc1` here?
A: 1.07 µM (active)

Q: And the IC50 [2]?
A: 14.7 µM (active)

Q: And the AC50 [3]?
A: 26.8 µM (active)

Q: And the IC50 [4]?
A: 2.48 µM (active)

Q: And the AC50 [5]?
A: 5.22 µM (active)

Q: What about the AC50 [6] of the same molecule?
A: 1.3 µM (active)

Q: What about the EC50 [7] of the same molecule?
A: 5.58 µM (active)

Q: What about the EC50 [8] of the same molecule?
A: 0.4 µM (active)

Q: What about the EC50 [9] of the same molecule?
A: 0.321 µM (active)

Q: What about the EC50 [10] of the same molecule?
A: 3 µM (active)

Q: And the IC50 [11]?
A: 2.14 µM (active)

Q: What about the EC50 [12] of the same molecule?
A: 1.84 µM (active)

Q: What about the IC50 [13] of the same molecule?
A: 21 µM (not active)

Q: And the AC50 [14]?
A: 6.15 µM (active)

Q: What about the EC50 [15] of the same molecule?
A: 8.09 µM (active)

Q: What about the EC50 [16] of the same molecule?
A: 5.46 µM (active)

Q: What about the EC50 [17] of the same molecule?
A: 5.05 µM (active)

Q: And the AC50 [18]?
A: 3.81 µM (active)

Q: And the IC50 [19]?
A: > 20 µM (inactive)

Q: With `COCCNC(=O)/C(C#N)=C/c1c(N2CCN(c3ccccc3)CC2)nc2c(C)cccn2c1=O` as the molecule, how does the IC50 [20] read?
A: 14.7 µM (active)

Q: And the IC50 [21]?
A: > 100 µM (active)

Q: And the IC50 [22]?
A: 9.79 µM (active)

Q: For `COc1ccc(CNC(=O)CCS(=O)(=O)c2ccc(Br)cc2)cc1`, which EC50 [23] is on record?
A: 0.7 µM (active)

Q: And the EC50 [24]?
A: 3 µM (active)

Q: Which IC50 [25] does the source give for `COc1cc(C(=O)NCCN2CCC3(CC2)C(=O)NCN3c2ccccc2)ccc1N` here?
A: 0.17 µM (active)

Q: What about the IC50 [26] of the same molecule?
A: 1.08 µM (active)

Q: For `CCOc1ccc(-c2nc(CSCC(=O)NCCC3=CCCCC3)c(C)o2)cc1`, which IC50 [27] is on record?
A: 42.4 µM (inactive)

Q: What about the IC50 [28] of the same molecule?
A: 9.13 µM (active)

Q: And the IC50 [29]?
A: 17.6 µM (active)

Q: For `COc1cc2c(cc1OC)-c1cc(NCc3ccc(F)cc3)nc(=O)n1CC2`, which IC50 [30] is on record?
A: > 80 µM (inactive)

Q: And the IC50 [31]?
A: > 80 µM (inactive)
